What all share (format): biochemical
One test has as its target CDK9/CyclinT1 (Homo sapiens, UniProt P50750). The experiment in a line: CDK9/CyclinT1 Mobility Shift Assay (Caliper, Table B). Conditions: read-out: CDK9/Cyclin T1 Caliper Ki: Average Ki. On the set-up: Wild-type, full length CDK9 in complex with wildtype, CyclinT1 (1-259): Biortus Cat #BP480/792/691; purchased Biortus BP480/792/691. How it is done:
10 nL of 2000× compound in 100% DMSO is added to a 384-well polypropylene assay plate. 15 μL of 1.3×CDK9/T1 and 1.3× fluorescent substrate (Wild-type, full length CDK9 in complex with wildtype, CyclinT1 (1-259): Biortus Cat #BP480/792/691 and FL-Peptide 34: PerkinElmer Cat #760643) diluted in kinase buffer (50 mM Hepes, 0.01% Brij-35, 10 mM MgCl2, 1 mM EGTA, 0.05% BSA, and 2 mM DTT) is added to the plates on top of the compound, mixed, and pre-incubated for 30 minutes at room temperature. The fluorescently labeled peptide substrate is phosphorylated by CDK9/T1 upon ATP hydrolysis. Following the incubation, 5 μL of 4×ATP diluted in kinase buffer is added to the plate to initiate the reaction. Following the 30-minute incubation, the reaction is stopped by adding 75 μL of stopping buffer containing 0.5 M EDTA.
(§1) The assay plate is then read on a Lab Chip EZ Reader which separates the fluorescently labeled substrate and product peptides through a mobility difference. The phosphorylation of the substrate imparts a negative charge, which allows differences in separation as both are pulled through the microfluidic chip. The ratio of substrate and product values are used to generate percent conversion. These raw percent conversion values are normalized to calculate percent inhibition, which are fit to a four-parameter logistic curve and IC50 values are calculated. IC50 values are converted to Ki using substrate, Kmapp values, and the Cheng-Prusoff equation.

The next test deals with T1, CDK1/CyclinB1 (Homo sapiens, UniProt P06493).
T1 construct: Wild-type, full length CDK1 in complex with wildtype, full length CyclinB1: Carna Cat #04-102; purchased Carna 04-102
T1 sequence (P06493 whole entry): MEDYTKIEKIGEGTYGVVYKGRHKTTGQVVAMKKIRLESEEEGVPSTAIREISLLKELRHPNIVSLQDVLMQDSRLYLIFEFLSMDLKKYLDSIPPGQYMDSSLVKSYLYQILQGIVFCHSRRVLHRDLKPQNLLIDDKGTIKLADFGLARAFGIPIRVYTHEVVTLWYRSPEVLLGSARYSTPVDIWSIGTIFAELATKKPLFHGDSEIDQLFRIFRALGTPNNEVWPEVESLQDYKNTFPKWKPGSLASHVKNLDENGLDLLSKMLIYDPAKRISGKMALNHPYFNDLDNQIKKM
T1 sequence (P14635 whole entry partner): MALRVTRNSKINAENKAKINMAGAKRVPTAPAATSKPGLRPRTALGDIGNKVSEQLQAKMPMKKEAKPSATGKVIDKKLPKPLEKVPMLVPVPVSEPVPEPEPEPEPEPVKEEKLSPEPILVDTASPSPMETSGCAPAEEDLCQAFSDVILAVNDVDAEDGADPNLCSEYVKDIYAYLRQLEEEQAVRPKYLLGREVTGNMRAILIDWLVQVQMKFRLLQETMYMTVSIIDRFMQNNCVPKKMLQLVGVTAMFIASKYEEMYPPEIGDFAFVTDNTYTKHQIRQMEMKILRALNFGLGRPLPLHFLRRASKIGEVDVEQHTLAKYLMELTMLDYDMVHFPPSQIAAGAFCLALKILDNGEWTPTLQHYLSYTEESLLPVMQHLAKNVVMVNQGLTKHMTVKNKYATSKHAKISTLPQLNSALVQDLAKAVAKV
Nature of the test: CDK1/CyclinB1 ChEF Assay (Table A).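 Note: Ki reported in nM.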 Conditions: read-out: CDK1/CCNB1 ChEF Ki: Average Ki. How it is done: 500 nL of 50× compound in 100% DMSO is added to a 384-well low volume, white assay plate. 19.5 μL of 1.3×CDK1/CyclinB1 (Wild-type, full length CDK1 in complex with wildtype, full length CyclinB1: Carna Cat #04-102) diluted in assay buffer (50 mM Hepes, 0.01% Brij-35, 10 mM MgCl2, 0.5 mM EGTA, 1% Glycerol, and 1.2 mM DTT) is added to the plates on top of the compound and pre-incubated for 30 minutes at room temperature. Following the incubation, 5 μL of 5×Sox-chromophore (CSox) labeled peptide substrate (AQT0297, AssayQuant) & ATP diluted in assay buffer is added to the plate to initiate the reaction. The assay is incubated at room temperature for 30 min after initiation. The CSox peptide substrate is phosphorylated by CDK1/B1 upon ATP hydrolysis.
(§2) The fluorescent intensity measurement of the assay plate for all assays described above is read on a microplate reader once the assay is initiated and again at the completion of the assay. Phosphorylation of the CSox-based peptide substrate sensor results in an immediate increase in fluorescence. These raw fluorescence intensity values are normalized to calculate percent inhibition, which are fit to a four-parameter logistic curve and IC50 values are calculated. IC50 values are converted to Ki using substrate, KM^app values, and the Cheng-Prusoff equation.

In test [1] the target is T2, CDK2/CyclinA2 (Homo sapiens, UniProt P24941).
T2 construct: Wild-type, full length CDK2 in complex with wildtype, full length CyclinA2: Carna Cat #04-103; purchased Carna 04-103
The experiment in a line: CDK2/CyclinA2 ChEF Assay (Table A). The settings on record: for Ki: 10xKm, read-out: CDK2/CCNA2 ChEF 10xKm Ki: Average Ki. How it is done: 500 nL of 50× compound in 100% DMSO is added to a 384-well low volume, white assay plate. 19.5 μL of 1.3×CDK2/CyclinA2 (Wild-type, full length CDK2 in complex with wildtype, full length CyclinA2: Carna Cat #04-103 diluted in assay buffer (50 mM Hepes, 0.01% Brij-35, 10 mM MgCl2, 0.5 mM EGTA, 1% Glycerol, and 1.2 mM DTT) is added to the plates on top of the compound and pre-incubated for 30 minutes at room temperature. Following the incubation, 5 μL of 5×Sox-chromophore (CSox) labeled peptide substrate (AQT0255, AssayQuant) & ATP diluted in assay buffer is added to the plate to initiate the reaction. The assay is incubated at room temperature for 45 min after initiation. The CSox peptide substrate is phosphorylated by CDK2/A2 upon ATP hydrolysis.
as §2

Test [2] addresses T2, CDK2/CyclinA2. Nature of the test: CDK2/Cyclin A2 Mobility Shift Assay (Caliper, Table B). Conditions: for Ki: Caliper mobility shift, 10xKm, read-out: CDK2/CCNA2 Caliper 10xKm Ki: Average Ki. Here is the method: 10 nL of 2000× compound in 100% DMSO is added to a 384-well polypropylene assay plate. 15 μL of 1.3×CDK2/A2 and 1.3× fluorescent substrate (Wild-type, full length CDK2 in complex with wildtype, full length CyclinA2: Carna Cat #04-103 and FL-Peptide 18: PerkinElmer Cat #760362) diluted in kinase buffer (50 mM Hepes, 0.01% Brij-35, 10 mM MgCl2, 1 mM EGTA, 0.05% BSA, and 2 mM DTT) is added to the plates on top of the compound, mixed, and pre-incubated for 30 minutes at room temperature. The fluorescently labeled peptide substrate is phosphorylated by CDK2/A2 upon ATP hydrolysis. Following the incubation, 5 μL of 4×ATP diluted in kinase buffer is added to the plate to initiate the reaction. Following the 30-minute incubation, the reaction is stopped by adding 75 μL of stopping buffer containing 0.5 M EDTA.
as §1, with “Ki through” for “Ki”, “substrate and Km^app” for “substrate, Kmapp”

CDK9/CyclinT1, sequence (P50750 whole entry): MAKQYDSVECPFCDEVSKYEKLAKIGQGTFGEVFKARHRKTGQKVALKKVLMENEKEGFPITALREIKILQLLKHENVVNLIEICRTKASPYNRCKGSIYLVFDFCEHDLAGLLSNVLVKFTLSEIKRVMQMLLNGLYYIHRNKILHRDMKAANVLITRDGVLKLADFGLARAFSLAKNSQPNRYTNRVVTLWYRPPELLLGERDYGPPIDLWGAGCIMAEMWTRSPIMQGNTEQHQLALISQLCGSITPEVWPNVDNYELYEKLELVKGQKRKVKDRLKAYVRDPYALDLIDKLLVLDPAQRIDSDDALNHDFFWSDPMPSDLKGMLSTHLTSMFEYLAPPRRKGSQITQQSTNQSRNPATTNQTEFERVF
CDK9/CyclinT1, sequence (O60563 1-259 partner limits assumed): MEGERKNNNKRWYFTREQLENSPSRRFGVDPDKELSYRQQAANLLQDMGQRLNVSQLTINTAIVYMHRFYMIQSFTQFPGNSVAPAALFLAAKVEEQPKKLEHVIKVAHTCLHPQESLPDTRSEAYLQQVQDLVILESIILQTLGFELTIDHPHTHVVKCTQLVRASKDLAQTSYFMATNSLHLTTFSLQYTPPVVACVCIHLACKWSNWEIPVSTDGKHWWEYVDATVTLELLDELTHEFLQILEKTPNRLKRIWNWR

With `NS(=O)(=O)c1ccc2cc1OCCCCCNC(=O)O[C@@H]1CC[C@@H](C1)c1cnc(nc1)N2` (stereo in doubt) [Compound 105, rel-(2S,5R)-7-oxo-6,14-dioxa-8,20,22,25-tetraazatetracyclo[19.2.2.1^{2,5}.1^{15,19}]heptacosa-1(23),15,17,19(26),21,24-hexaene-16-sulfonamide], the Ki at CDK9/CyclinT1 was no less than 100 nM.

`O=C1NCCOCCNS(=O)(=O)c2ccc(c(F)c2)Nc2cc([nH]n2)[C@H]2CC[C@H](C2)O1` [Compound 89, (1^1S,1^3R,Z)-4^2-Fluoro-2^1H-9,14-dioxa-5-thia-3,6,12-triaza-2(5,3)-pyrazola-4(1,4)-benzena-1(1,3)-cyclopentanacyclotetradecaphan-13-one 5,5-dioxide]: the Ki at CDK1/CyclinB1, on CDK9/CyclinT1, on CDK2/CyclinA2 [1] and at CDK2/CyclinA2 [2] was 1 to 25 nM in each case. In addition, the “CDK2/CCNA2 ChEF 10xKm Ki: CDK2/A2 Selectivity over CDK9/T1” value at CDK2/CyclinA2 [1] is given as “A (A>10)”. Further, the “CDK2/CCNA2 Caliper 10xKm Ki: CDK2/A2 Selectivity over CDK1/B1” value on CDK2/CyclinA2 [2] is “A (A>10)”. The “CDK2/CCNA2 Caliper 10xKm Ki: CDK2/A2 Selectivity over CDK9” value on CDK2/CyclinA2 [2] was “A (A>10)”.

In the case of `O=C1NCCCCCNS(=O)(=O)c2ccc(c(F)c2)Nc2cc([nH]n2)[C@H]2CC[C@H](C2)O1` [Compound 90, (1^1S,1^3R,Z)-4^2-fluoro-2^1H-14-oxa-5-thia-3,6,12-triaza-2(5,3)-pyrazola-4(1,4)-benzena-1(1,3)-cyclopentanacyclotetradecaphan-13-one 5,5-dioxide], the Ki at CDK1/CyclinB1 fell in the range of 1 to 25 nM. Besides, the Ki on CDK9/CyclinT1 lay in the range of 25 to 100 nM. In addition, at CDK2/CyclinA2 [1], the Ki is 1 to 25 nM and the “CDK2/CCNA2 ChEF 10xKm Ki: CDK2/A2 Selectivity over CDK9/T1” value is given as “A (A>10)”. For the same compound, on CDK2/CyclinA2 [2], the Ki was 1 to 25 nM, the “CDK2/CCNA2 Caliper 10xKm Ki: CDK2/A2 Selectivity over CDK1/B1” value was “A (A>10)” and the “CDK2/CCNA2 Caliper 10xKm Ki: CDK2/A2 Selectivity over CDK9” value is listed as “A (A>10)”.

Regarding `O=C1NCCCCCCNS(=O)(=O)c2ccc(c(F)c2)Nc2cc([nH]n2)[C@H]2CC[C@H](C2)O1` [Compound 91, (1^1S,1^3R,Z)-4^2-fluoro-2^1H-15-oxa-5-thia-3,6,13-triaza-2(5,3)-pyrazola-4(1,4)-benzena-1(1,3)-cyclopentanacyclopentadecaphan-14-one 5,5-dioxide], the Ki at CDK1/CyclinB1 fell in the range of 1 to 25 nM. Besides, on CDK9/CyclinT1, the Ki is 25 to 100 nM. At CDK2/CyclinA2 [1], the Ki is less than 1 nM and the “CDK2/CCNA2 ChEF 10xKm Ki: CDK2/A2 Selectivity over CDK9/T1” value is “A (A>10)”. In addition, on CDK2/CyclinA2 [2], the Ki was less than 1 nM, the “CDK2/CCNA2 Caliper 10xKm Ki: CDK2/A2 Selectivity over CDK1/B1” value is recorded as “A (A>10)”, the “CDK2/CCNA2 Caliper 10xKm Ki: CDK2/A2 Selectivity over CDK6/D3” value is “A (A>10)” and the “CDK2/CCNA2 Caliper 10xKm Ki: CDK2/A2 Selectivity over CDK9” value is listed as “A (A>10)”.

On to `O=C1NCCCCCCCNS(=O)(=O)c2ccc(c(F)c2)Nc2cc([nH]n2)[C@H]2CC[C@H](C2)O1` [Compound 92], for which the Ki at CDK1/CyclinB1 was less than 1 nM. For the same compound, the Ki on CDK9/CyclinT1 lay in the range of 25 to 100 nM. Moreover, on CDK2/CyclinA2 [1], the Ki was less than 1 nM and the “CDK2/CCNA2 ChEF 10xKm Ki: CDK2/A2 Selectivity over CDK9/T1” value was “A (A>10)”. Besides, on CDK2/CyclinA2 [2], the Ki was less than 1 nM, the “CDK2/CCNA2 Caliper 10xKm Ki: CDK2/A2 Selectivity over CDK1/B1” value is reported as “A (A>10)”, the “CDK2/CCNA2 Caliper 10xKm Ki: CDK2/A2 Selectivity over CDK6/D3” value was “A (A>10)” and the “CDK2/CCNA2 Caliper 10xKm Ki: CDK2/A2 Selectivity over CDK9” value is “A (A>10)”.

As for `O=C1NCCCn2cc(cn2)S(=O)(=O)N2CCC(CC2)Nc2cc([nH]n2)[C@H]2CC[C@H](C2)O1` [Compound 95, (1^1S, 1^3R,2^4Z,6^4E)-2^1H,6^1H-12-oxa-5-thia-3,10-diaza-4(4,1)-piperidina-2(5,3),6(4,1)-dipyrazola-1(1,3)-cyclopentanacyclododecaphan-11-one 5,5-dioxide], the Ki on CDK1/CyclinB1 is no less than 100 nM. In addition, the Ki on CDK9/CyclinT1 was no less than 100 nM. On CDK2/CyclinA2 [1], the Ki was no less than 100 nM and the “CDK2/CCNA2 ChEF 10xKm Ki: CDK2/A2 Selectivity over CDK9/T1” value is listed as “C (C<5)”. In addition, at CDK2/CyclinA2 [2], the Ki was in the range of 25 to 100 nM, the “CDK2/CCNA2 Caliper 10xKm Ki: CDK2/A2 Selectivity over CDK1/B1” value is listed as “B (5≤B<10)” and the “CDK2/CCNA2 Caliper 10xKm Ki: CDK2/A2 Selectivity over CDK9” value is “B (5≤B<10)”.

For `O=C1NCCCCCn2cc(cn2)S(=O)(=O)N2CCC(CC2)Nc2cc([nH]n2)[C@H]2CC[C@H](C2)O1` [Compound 96, (1^1S,1^3R,2^4Z,6^4E)-2^1H,6^1H-14-oxa-5-thia-3,12-diaza-4(4,1)-piperidina-2(5,3),6(4,1)-dipyrazola-1(1,3)-cyclopentanacyclotetradecaphan-13-one 5,5-dioxide], the Ki on CDK1/CyclinB1 was 25 to 100 nM; on CDK9/CyclinT1 it was no less than 100 nM; at CDK2/CyclinA2 [1], 1 to 25 nM; at CDK2/CyclinA2 [2] it was 1 to 25 nM. The “CDK2/CCNA2 ChEF 10xKm Ki: CDK2/A2 Selectivity over CDK9/T1” value at CDK2/CyclinA2 [1] is “A (A>10)”. For the same compound, the “CDK2/CCNA2 Caliper 10xKm Ki: CDK2/A2 Selectivity over CDK1/B1” value at CDK2/CyclinA2 [2] is listed as “A (A>10)”. For the same compound, the “CDK2/CCNA2 Caliper 10xKm Ki: CDK2/A2 Selectivity over CDK9” value at CDK2/CyclinA2 [2] is “A (A>10)”.

For the compound `O=C1NCCCCCCn2cc(cn2)S(=O)(=O)N2CCC(CC2)Nc2cc([nH]n2)[C@H]2CC[C@H](C2)O1` [Compound 97, (1^1S,1^3R,2^4Z,6^4E)-2^1H,6^1H-15-oxa-5-thia-3,13-diaza-4(4,1)-piperidina-2(5,3),6(4,1)-dipyrazola-1(1,3)-cyclopentanacyclopentadecaphan-14-one 5,5-dioxide], the Ki at CDK1/CyclinB1 was in the range of 1 to 25 nM. In addition, the Ki at CDK9/CyclinT1 is no less than 100 nM. At CDK2/CyclinA2 [1], the Ki is less than 1 nM and the “CDK2/CCNA2 ChEF 10xKm Ki: CDK2/A2 Selectivity over CDK9/T1” value is listed as “A (A>10)”. Besides, at CDK2/CyclinA2 [2], the Ki lay within 1 to 25 nM, the “CDK2/CCNA2 Caliper 10xKm Ki: CDK2/A2 Selectivity over CDK1/B1” value is listed as “A (A>10)” and the “CDK2/CCNA2 Caliper 10xKm Ki: CDK2/A2 Selectivity over CDK9” value is reported as “A (A>10)”.
